Experimental data reported in PMC3527734, “Peripheral injections of melanin-concentrating hormone receptor 1 antagonist S38151 decrease food intake and body weight in rodent obesity models” (Frontiers in Endocrinology, 2012).
Where a SMILES comes first, the peptide text is derived from it.

Experiments:
MCH1-KO mice = assay: daily i.p. S38151 in MCH1-KO mice; format: in vivo, mouse
Method: In these studies, 13-week-old female C57BL/6J, ob/ob, and MCH1-KO mice were used. The mice were maintained on a 12-h light/dark cycle (lights on at 07:30 and off at 19:30) at 22 ± 3°C, and supplied with food pellets (6 mm diameter A03, UAR Laboratory chow, Epinay Villemuisson France) and tap water ad libitum. To induce obesity in C57BL/6J (creating diet-induced obese, or DIO, mice), mice were fed a high-fat diet (60 kcal% fat, 20 kcal% protein, 20 kcal% carbohydrate, ref D12492 from Research Diets, New Brunswick, NJ08901, USA) for 8 weeks starting at 4 weeks of age. In these experiments, DIO mice, ob/ob mice, and MCH^−/−1 mice were individually housed in a modular chamber that was placed on an activity platform to concurrently measure the food intake, water intake, and activity of the mice (ADDENFI, Les Cordeliers, Paris, France). For at least 2 weeks before experimentation, mice were habituated to a diet of 6 mm diameter food pellets of the following composition: 67.5% food flour, 26.5% sucrose, 5% gum tragacanth, 1.25% magnesium stearate (A03 UAR, Orge, France), and to i.p. injection. After this habituation period, food intake, drink intake, and body weight were measured for 3 consecutive days. The mice were randomized into three groups based on their food and water intake over the three preceding 24-h periods, and on their body weight. Next, the quantity of food eaten over each 24-h period during the 5 days of i.p. treatment with S38151 [10 and 30 mg/kg/day (7 and 20 μmol/kg/day)] or vehicle was determined and corrected for spillage.
Figure 10 The effects of repeated daily S38151 injection on food and water intake, body weight, and motility in MCHR1-KO mice. MCH1-KO mice were administered S38151 (10 and 30 mg/kg, i.p.) or vehicle (normal saline i.p.) for 5 consecutive days. Results are expressed as mean ± SEM (n = 8 mice per group).

Zucker fa/fa rats [1] = conditions: cyclophosphamide 100 mg/kg i.p., S38151 20 nmol/kg (28 μg/kg) i.c.v., n = 8
Method: These experiments were performed with modifications to previously described methods (Madden et al., [1999]). Rats were individually housed in wire-bottomed plastic cages with free access to both food pellets (6 mm diameter A03 UAR) and kaolin powder. The food pellets were presented in a small porcelain bowl on the floor of the cage. The kaolin powder was presented in a metal feeding dish attached to the inside of the cage. After a 2-week habituation period to these conditions, the animals were randomized into five treatment groups based on the quantity of food eaten during the stabilization period. In addition, those rats that consistently spilled the kaolin powder were eliminated from the study. One day after randomization, the animals were injected just before the beginning of the dark phase with either cyclophosphamide (100 mg/kg, i.p.), or S38151 [20 nmol/kg (28 μg/kg) i.c.v.] or vehicle [(artificial CSF) i.c.v.]. After injection, the quantity of kaolin and food ingested during the following 24-h period was determined. Food or kaolin spilled by the animals was collected at the end of the experiment, and total food and kaolin intake measurements were corrected for this loss.
Figure 5 The effects of S38151 on conditioned taste aversion and pica in Zucker fa/fa rats. (A) In the conditioned taste aversion test, after a period of habituation of the animals to the experimental protocol, Zucker fa/fa rats were presented with 0.2% saccharine for 20 min after drinking water was removed from their cages for 18 h (test day 0). Animals were then injected (i.p.) with vehicle or lithium chloride, or with S38151 (20 nmol/kg, i.c.v). On test days 4, 7, 11, and 14, rats were presented with 0.2% saccharine, and the quantity consumed during a 20-min period was determined. Results are expressed as mean ± SEM (n = 10–11 rats per group). […] (B) In the pica test, Zucker fa/fa rats were injected (i.c.v.) with 20 nmol/kg S38151, or an equivalent volume of artificial cerebrospinal fluid vehicle. Food and kaolin intake during the following 24-h period were each measured. Results are expressed as mean ± SEM (n = 8 rats per group).

Zucker fa/fa rats [2] = assay: daily i.c.v. administration, feeding, drinking, body weight and motility; format: in vivo, rat
Source text: Wistar and Zucker fa/fa rats were anesthetized with Forène (Abbott Laboratories, Queenborough, UK), and a stainless steel guide cannula (Plastic Products Co, Roanoke, Va, USA) was stereotaxically implanted into the right lateral ventricle at the following coordinates relative to the bregma: AP −0.8 mm, L = −1.2 mm, and V = −3.5 mm. After a 7-day recovery period, during which the animals were handled each day to minimize non-specific stress, they were lightly anesthetized with Forène. Human/mouse/rat MCH (1 μg in a volume of 2.5 μ L, Bachem, Voisins-le-Bretonneux, France) or an equivalent volume of artificial cerebrospinal fluid (CSF) was then injected through the intraventricular cannula. Immediately after injection, the animals quickly recovered and were returned to their home cages. Only those animals responding within 2 h with a robust increase in food intake, indicating correct cannula placement, were used in the experiments described below. Two days after MCH injection, the rats were randomly assigned to different groups and studied in one of the following protocols.
The TSE Drinking and Feeding Monitor system was used to analyze ingestive behavior in these experiments (TSE Technical & Scientific Equipment GmbH, Bad Homburg, Germany). The rats' motility was also determined in these experiments using the MoTil® system (TSE). Zucker fa/fa rats were placed individually into plastic cages to which were attached both a feeding and a drinking sensor. The animals were habituated to normal food (A03 UAR, Orge, France) and water for at least 2 weeks before experimentation. […] The injections were repeated daily for a total of 7 days. After 7 days, the injections were stopped and each measured parameter was followed during a 5-day washout period.
Figure 4 The effects of repeated daily central administration of S38151 on food intake, water intake, body weight, and motility in Zucker fa/fa rats. One hour prior the beginning of the dark phase, different doses of S38151 (5, 10, or 20 nmol/kg) or vehicle were injected (i.c.v.) once daily for 7 days, followed by a washout period of 5 days. […] Repeated measures Two-Way ANOVA (treatment × time) was performed with a repeated measure of the factor “time.” Significant treatment and interaction effects are shown on the graph. ^+P < 0.05; ^++P < 0.01; ^+++P < 0.001.

[3] = S38151 10 and 30 mg/kg i.p. daily for 5 days, n = 8

For CSCC[C@@H]1NC(=O)[C@@H](NC(=O)c2ccc(NC(=N)N)cc2)CSSC[C@@H](C(=O)N[C@@H](Cc2c[nH]c3ccccc23)C(=O)O)NC(=O)[C@@H]2CCCN2C(=O)[C@H](CCCNC(=N)N)NC(=O)[C@H](Cc2ccc(O)cc2)NC(=O)[C@H](C(C)C)NC(=O)[C@H](CCCNC(=N)N)NC(=O)[C@H](CC(C)C)NC1=O [S38151, p-guanidinobenzoyl-(Des-Gly10)-MCH (7–17)] (HELM PEPTIDE1{[N=C(N)Nc1ccc(C(=O)[*:2])cc1].C.M.L.R.V.Y.R.P.C.W}$PEPTIDE1,PEPTIDE1,2:R3-10:R3$$$V2.0; C-terminus assumed), the motility (MCH1-KO mice; S38151 30 mg/kg (20 μmol/kg/day) i.p. daily for 5 days) was “significant reduction”, the body weight (MCH1-KO mice; [3]) was “did not induce any significant effects” and the drink intake (MCH1-KO mice; [3]) was “did not induce any significant effects”. For the same molecule, the food intake (MCH1-KO mice; [3]) was “did not induce any significant effects”, the “kaolin intake, 24 h, pica test” value (Zucker fa/fa rats [1]; vehicle 0.05 ± 0.01 g) was “did not significantly alter” and the “food intake, 24 h, pica test” value (Zucker fa/fa rats [1]; vehicle 27 ± 1 g) was “significantly reduced”. The “body weight gain during the washout period” value (Zucker fa/fa rats [2]; 5-day washout after 10 nmol/kg S38151 i.c.v. for 7 days) was “remained significantly less than control values”, the “motility during the washout period” value (Zucker fa/fa rats [2]; 5-day washout after 20 nmol/kg S38151 i.c.v. for 7 days) was “remained significantly elevated” and the food intake (Zucker fa/fa rats [2]; S38151 5, 10, 20 nmol/kg i.c.v. daily for 7 days, significant only at 20 nmol/kg, n = 8) was “dose-dependent inhibition”. The motility (Zucker fa/fa rats [2]; S38151 10 and 20 nmol/kg i.c.v. daily for 7 days) was “significantly increased”, the body weight gain (Zucker fa/fa rats [2]; S38151 10 and 20 nmol/kg i.c.v. daily for 7 days, compared with control rats) was “dose-dependent reduction” and the water intake (Zucker fa/fa rats [2]; S38151 i.c.v. daily for 7 days, all injected doses except the 5 nmol dose) was “significantly inhibited”.
